According to patent publication US12662493B2, “Non-immunosuppressive FK506 analogs and use thereof” (The Johns Hopkins University, priority 2019, dated 2026):

Assays:
Jurkat T cells = experiment: Resazurin-based cell viability assay of Jurkat cells; conditions: 3 days, concentrations up to 10 μM
Procedure: (§1) Jurkat (E6.1, ATCC) cells were cultured in RPMI with 10% FBS and 1.5% PennStrep. Jurkat cells (1×10^6) were transfected with 10 μg of BRE-Luciferase (kindly provided by Martine Roussel & Peter ten Dijke) or NFAT-Luciferase cDNA (Promega) by electroporation (BioRad, square-wave, 250V, […]) in 400 μL serum/antibiotic free RPMI with 0.5% DMSO. Thirty minutes after transfection, cells were transferred to complete RPMI and rested overnight. Before plating, cells were re-suspended in fresh media and diluted to 0.5×10^6 cells/mL. HEK293T cells were cultured in DMEM with 10% FBS, 1% PennStrep, and 500 μg/mL G418 (Corning). Cells were transfected using SuperFect reagent and supplied transfection protocols. HUVEC cells were cultured in Lonza Endothelial Cell Growth Medium (EGM-2) and used between passages 3 and 7. All cells were cultured at 37° C. with 5% CO2.
Jurkat or HUVEC cells were plated at 1000 cells/well in 180 μL growth media before addition of 20 μL of 10X drug/protein stock. After incubation for 72 h, 22 μL of a resazurin sodium salt solution (0.1 mg/mL stock in water) was added to each well and allowed to incubate at 37° C. The metabolic conversion of resazurin dye was monitored by absorbance at 570 nm after 6 h. After background subtraction (media only+dye), absorbance values were left as arbitrary absorbance units or normalized to those obtained from cells treated with DMSO.

[1] = tested on: BMP type 1 receptor (SMAD1/5 phosphorylation); experiment: SMAD1/5 phosphorylation Western blot in Jurkat cells; assay type: cell-based; conditions: LDN treatment
[2] = tested on: full-thickness excisional wounds; experiment: In vivo excisional wound model in diabetic GK rats; design: species or system Goto-Kakizaki (GK) type-2 diabetic rats
Procedure: Goto-Kakizaki (GK) type-2 diabetic rats obtained from Charles River (Boston, MA) were housed in a pathogen-free facility and cared for according to NIH guidelines and a protocol approved by the Johns Hopkins University Animal Care and Use Committee (ACUC). Both male and female GK rats at age of 4-5 months were used in this study.
(§2) Full-thickness wounds were created in the dorsal skin of rats with a sterile disposable biopsy punch (8 mm in diameter). The animals were injected subcutaneously with saline, AMD3100 (1 mg/kg) plus FK506 (0.1 mg/kg) or AMD3100 (1 mg/kg) plus FKVP (0.1 mg/kg) immediately after wounding and every other day until complete healing, defined as complete re-epithelialization of the wound area. For assessing the role of BMP signaling, animals were injected intraperitoneally (i.p.) with LDN-193189 (2 mg/kg/day) in addition to standard saline or AF treatment. Wounds were evaluated daily according to the method described previously (Lin et al., 2014).
The one-way analysis of variance (ANOVA) was used to determine the statistically difference in wound healing among AF, AF+LDN, Saline and S+LDN groups or between AF, AV and Saline groups when comparing days of wound healing.

[3] = tested on: CD133+ stem cells in wound sites; experiment: CD133 immunohistochemistry of wound tissue of GK rats; assay type: in vivo, Goto-Kakizaki (GK) type-2 diabetic rats; conditions: day 7, versus AF
Procedure: as §2
Cut sections of 5 μm were prepared from frozen tissue for immunohistochemistry staining. Frozen sections were fixed with acetone at −20° C. for 10 min and dried for 1 h at room temperature. After inactivation of endogenous peroxidase and blocking of nonspecific antibody binding, the specimens were incubated with anti-CD133 (1:300, ab19898; Abcam) at 4° C. overnight. The tissue sections were then subsequently incubated with biotin-conjugated goat anti-rabbit IgG (1:200, #14708S Cell Signaling, Danvers, MA) for 30 minutes at room temperature. The VectaStain Elite ABC kit (HRP) (Vector Laboratories, Burlingame, CA) was used to increase the sensitivity of the staining. […]

[4] = tested on: BMP signaling pathway (ID1 gene promoter); experiment: BMP-response-element (BRE) luciferase pathway reporter in Jurkat T cells; assay type: cell-based; conditions: for reduction of FK506- or FKVP-induced BRE reporter activity: LDN at 100 nM; for BRE reporter (ID-1 promoter luciferase) activation: 18 h, normalized to DMSO
Procedure: as §1
Jurkat T cells transfected with BRE-Luc were split into a 96-well plate (80 μL/well of 0.5×10^6 cells/mL)) and treated with previously stated compounds/proteins (20 μL of 5X stock in RPMI, 0.5% DMSO) for 18 h. rBMP-4 and […] (R&D) were used as positive and negative controls, respectively. Plates were centrifuged at 3000 rpm for 10 min, then carefully aspirated. Cells were re-suspended in 100 μL lysis buffer (per well) and placed on a plate-shaker for 30 min. An aliquot of 80 μL of lysate was transferred to a white-walled 96-well plate, and luminescence was recorded 2 seconds after automated injection of luciferase substrate. Luminescence values were background subtracted (lysis buffer+substrate) and normalized to DMSO control values.
FKBP12KO Jurkat T cells transfected with FKBP12-SNAP plasmid were selected with 1200 μg/mL G418 for seven days before use in BRE-Luc assays.

[5] = tested on: full-thickness excisional wounds; conditions: mouse, in vivo; cited from earlier work
[6] = tested on: cell migration stimulated by CXCL12; conditions: cited from earlier work

With C=CC[C@@H]1/C=C(\C)C[C@H](C)C[C@H](OC)[C@H]2O[C@@](O)(C(=O)C(=O)N3CCCC[C@H]3C(=O)O[C@H](/C(C)=C/[C@@H]3CC[C@@H](O)[C@H](OC)C3)[C@H](C)[C@@H](O)CC1=O)[C@H](C)C[C@@H]2OC [FK506] the cell viability (Jurkat T cells) was “did not affect cell viability”.

In the case of c1ccc2c(-c3cnn4cc(-c5ccc(N6CCNCC6)cc5)cnc34)ccnc2c1 [LDN-193189], the “effect on FK506/FKVP-induced SMAD1/5 phosphorylation” value [1] is reported as “abolished”, the “time for complete healing, LDN added to AF combination” value ([2]; LDN-193189 2 mg/kg/day i.p. plus AF) is reported as 25 days and the “effect on wound healing, LDN alone” value ([2]; LDN-193189 2 mg/kg/day i.p. with saline) is reported as “no effect on wound healing”. For the same molecule, the “number of CD133+ cells in the wounds, LDN added to AF combination” value [3] was “dramatically reduced” and the “reduction of FK506- or FKVP-induced BRE reporter activity” value [4] was “completely blocked”.

In the case of c1cc(CN2CCCNCCNCCCNCC2)ccc1CN1CCCNCCNCCCNCC1 [AMD3100, 1,1′-[1,4-phenylenebis(methylene)]bis-1,4,8,11-tetraazacyclo-tetradecane], the “healing, AMD3100 treatment alone” value [5] is listed as “only slightly faster healing”, the IC50 [6] is listed as 51 ± 17 nM and the “BRE reporter (ID-1 promoter luciferase) activation” value [4] is listed as “no effect on ID-1 promoter stimulation”.

B1: Noggin: extracellular BMP-inhibitor protein (protein, UniProt Q13253 28-232, looked up)
Noggin: QHYLHIRPAPSDNLPLVDLIEHPDPIFDPKEKDLNETLLRSLLGGHYDPGFMATSPPEDRPGGGGGAAGGAEDLAELDQLLRQRPSGAMPSEIKGLEFSEGLAQGKKQRLSKKLRRKLQMWLWSQTFCPVLYAWNDLGSRFWPRYVKVGSCFSKRSCSVPEGMVCKPSKSVHLTVLRWRCQRRGGQRCGWIPIQYPIISECKCSC
In the case of B1, the “reduction of FK506- or FKVP-induced BRE reporter activity” value [4] is reported as “not effective at reducing”.

B2: BMP4: recombinant BMP-4 protein, positive control of the BRE reporter (protein, UniProt P12644 293-408, looked up)
Bone morphogenetic protein 4: SPKHHSQRARKKNKNCRRHSLYVDFSDVGWNDWIVAPPGYQAFYCHGDCPFPLADHLNSTNHAIVQTLVNSVNSSIPKACCVPTELSAISMLYLDEYDKVVLKNYQEMVVEGCGCR
In the case of B2, the “BRE reporter (ID-1 promoter luciferase) activation” value [4] is reported as “strong induction of luciferase expression”.
